Data as given in patent US20240351997A1, “NOVEL PARP7 INHIBITOR AND USE THEREOF” (SHANGHAI QILU PHARMACEUTICAL RESEARCH AND DEVELOPMENT …, priority 2021, published 2024).

Target: PARP7 (Homo sapiens (Human), UniProt Q7Z3E1)
Assay: In vitro enzymology experiment of PARP7 (enzymatic inhibition)
Type: biochemical
Outline: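 Histone-coated plate ADP-ribosylation format: compound preincubated 10 min at room temperature with preincubated (25 °C, 10 min) enzyme mixture; incorporated biotin detected by streptavidin-HRP and QuantaRed fluorescence (Ex550/Em620).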

PARP7, sequence (Q7Z3E1 whole entry): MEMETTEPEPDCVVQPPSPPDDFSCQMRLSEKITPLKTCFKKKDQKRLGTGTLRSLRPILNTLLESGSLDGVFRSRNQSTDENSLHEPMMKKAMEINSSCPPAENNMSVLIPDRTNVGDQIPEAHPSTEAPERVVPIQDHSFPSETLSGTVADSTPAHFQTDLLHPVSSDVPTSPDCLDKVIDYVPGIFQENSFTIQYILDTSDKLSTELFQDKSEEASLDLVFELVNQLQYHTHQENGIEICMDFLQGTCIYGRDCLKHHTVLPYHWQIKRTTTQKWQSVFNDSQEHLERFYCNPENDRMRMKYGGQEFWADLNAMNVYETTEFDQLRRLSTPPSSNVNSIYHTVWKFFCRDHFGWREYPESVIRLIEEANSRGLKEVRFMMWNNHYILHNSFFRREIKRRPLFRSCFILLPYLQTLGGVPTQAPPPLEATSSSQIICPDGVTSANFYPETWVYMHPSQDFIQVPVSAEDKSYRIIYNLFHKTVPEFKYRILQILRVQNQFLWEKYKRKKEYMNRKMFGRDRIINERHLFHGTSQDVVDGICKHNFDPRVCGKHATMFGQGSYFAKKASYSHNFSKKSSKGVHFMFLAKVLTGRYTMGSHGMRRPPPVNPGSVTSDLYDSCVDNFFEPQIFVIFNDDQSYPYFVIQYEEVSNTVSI

SMILES	IC50
O=C(Cc1cccc(-c2c[nH]c(=O)c(C(F)(F)F)c2)c1)N1CCN(c2ncc(C(F)(F)F)cn2)CC1 [Example 96, 5-(3-(2-Oxo-2-(4-(5-(trifluoromethyl)pyrimidin-2-yl)piperazin-1-yl)ethyl)phenyl)-3-(trifluoromethyl)pyridin-2(1H)-one]	1.03 nM
O=C(Oc1cncc(-c2c[nH]c(=O)c(C(F)(F)F)c2)c1)N1CCN(c2ncc(C(F)(F)F)cn2)CC1 [Example 136, 6′-Oxo-5′-(trifluoromethyl)-1′,6′-dihydro-[3,3′-bipyridin]-5-yl 4-(5-(trifluoromethyl)pyrimidin-2-yl)piperazine-1-carboxylate]	3.53 nM
C[C@@H](Cc1c[nH]c(=O)c(C(F)(F)F)c1)OC(=O)NC1CCN(c2ncc(C(F)(F)F)cn2)CC1 [Example 55, (S)-1-(6-Oxo-5-(trifluoromethyl)-1,6-dihydropyridin-3-yl)propan-2-yl (1-(5-(trifluoromethyl)pyrimidin-2-yl)piperidin-4-yl)carbamate]	3.42 nM
N#CC[C@@H]1CN(c2ncc(C(F)(F)F)cn2)CCN1C(=O)OCCc1c[nH]c(=O)c(C(F)(F)F)c1 [Example 128, 2-(6-Oxo-5-(trifluoromethyl)-1,6-dihydropyridin-3-yl)ethyl (R)-2-(cyanomethyl)-4-(5-(trifluoromethyl)pyrimidin-2-yl)piperazine-1-carboxylate]	0.81 nM
O=C(OCCc1c[nH]c(=O)c(C(F)(F)F)c1)N1CCN(c2ccc(C(F)(F)F)cn2)CC1 [Example 106, 2-(6-Oxo-5-(trifluoromethyl)-1,6-dihydropyridin-3-yl)ethyl 4-(5-(trifluoromethyl)pyridin-2-yl)piperazine-1-carboxylate]	0.46 nM
C[C@H](COC(=O)N1CCN(c2ncc(C(F)(F)F)cn2)CC1)c1c[nH]c(=O)c(C(F)(F)F)c1 [Example 26]	0.6 nM
C[C@@H](Cc1c[nH]c(=O)c(C(F)(F)F)c1)OC(=O)N1CC=C(c2ccc(C(F)(F)F)cn2)CC1 [Example 98, (S)-1-(6-Oxo-5-(trifluoromethyl)-1,6-dihydropyridin-3-yl)propan-2-yl 5-(trifluoromethyl)-3′,6′-dihydro-[2,4′-bipyridine]-1′(2′H)-carboxylate]	0.83 nM
C[C@@H](COC(=O)N1CCN(c2ncc(C(F)(F)F)cn2)CC1)c1c[nH]c(=O)c(C(F)(F)F)c1 [Example 27]	1.1 nM
O=C(OCCc1c[nH]c(=O)c(C(F)(F)F)c1)N1C2CCC1CN(c1ncc(C(F)(F)F)cn1)C2 [Example 126, 2-(6-Oxo-5-(trifluoromethyl)-1,6-dihydropyridin-3-yl)ethyl 3-(5-(trifluoromethyl)pyrimidin-2-yl)-3,8-diazabicyclo[3.2.1]octane-8-carboxylate]	1 nM
CC[C@@H]1CN(c2ncc(C(F)(F)F)cn2)CCN1C(=O)OCCc1c[nH]c(=O)c(C(F)(F)F)c1 [Example 122, 2-(6-Oxo-5-(trifluoromethyl)-1,6-dihydropyridin-3-yl)ethyl (R)-2-ethyl-4-(5-(trifluoromethyl)pyrimidin-2-yl)piperazine-1-carboxylate]	0.69 nM
CC(C)(O)c1cnc(N2CCN(C(=O)OCCc3c[nH]c(=O)c(C(F)(F)F)c3)CC2)nc1 [Example 114, 2-(6-Oxo-5-(trifluoromethyl)-1,6-dihydropyridin-3-yl)ethyl 4-(5-(2-hydroxypropan-2-yl)pyrimidin-2-yl)piperazine-1-carboxylate]	0.53 nM
O=C(OC[C@@H]1CCCN1c1c[nH]c(=O)c(C(F)(F)F)c1)N1CCN(c2ncc(C(F)(F)F)cn2)CC1 [Example 29, (S)-(1-(6-Oxo-5-(trifluoromethyl)-1,6-dihydropyridin-3-yl)pyrrolidin-2-yl)methyl 4-(5-(trifluoromethyl)pyrimidin-2-yl)piperazine-1-carboxylate]	5.6 nM
O=C(Oc1cccc(-c2c[nH]c(=O)c(C(F)(F)F)c2)c1)N1CCN(c2ncc(C(F)(F)F)cn2)CC1 [Example 95, 3-(6-Oxo-5-(trifluoromethyl)-1,6-dihydropyridin-3-yl)phenyl 4-(5-(trifluoromethyl)pyrimidin-2-yl)piperazine-1-carboxylate]	0.72 nM
CC(COC(=O)N1CCN(c2ncc(C(F)(F)F)cn2)CC1)c1c[nH]c(=O)c(C(F)(F)F)c1 (centres unmarked) [Example 25, 2-(6-Oxo-5-(trifluoromethyl)-1,6-dihydropyridin-3-yl)propyl 4-(5-(trifluoromethyl)pyrimidin-2-yl)piperazine-1-carboxylate]	0.8 nM
CC[C@H]1CN(C(=O)OCCc2c[nH]c(=O)c(C(F)(F)F)c2)CCN1c1ncc(C(F)(F)F)cn1 [Example 124, 2-(6-Oxo-5-(trifluoromethyl)-1,6-dihydropyridin-3-yl)ethyl (S)-3-ethyl-4-(5-(trifluoromethyl)pyrimidin-2-yl)piperazine-1-carboxylate]	0.48 nM
C[C@@H](Cc1c[nH]c(=O)c(C(F)(F)F)c1)OC(=O)N1CCN(c2ncc(C(F)(F)F)cn2)[C@@H](CO)C1 [Example 73, (S)-1-(6-Oxo-5-(trifluoromethyl)-1,6-dihydropyridin-3-yl)propan-2-yl (R)-3-(hydroxymethyl)-4-(5-(trifluoromethyl)pyrimidin-2-yl)piperazine-1-carboxylate]	0.75 nM
C[C@@H]1CN(C(=O)OCCc2c[nH]c(=O)c(C(F)(F)F)c2)CCN1c1ncc(C(F)(F)F)cn1 [Example 112, 2-(6-Oxo-5-(trifluoromethyl)-1,6-dihydropyridin-3-yl)ethyl (R)-3-methyl-4-(5-(trifluoromethyl)pyrimidin-2-yl)piperazine-1-carboxylate]	0.62 nM

The remaining lines, values ahead:

IC50	SMILES
0.19 nM	C[C@@H](Cc1c[nH]c(=O)c(C(F)(F)F)c1)OC(=O)N1CCN(c2ncc(C(F)(F)F)cn2)C[C@@H]1C [Example 92, (S)-1-(6-Oxo-5-(trifluoromethyl)-1,6-dihydropyridin-3-yl)propan-2-yl (S)-2-methyl-4-(5-(trifluoromethyl)pyrimidin-2-yl)piperazine-1-carboxylate]
0.9 nM	CC(Cc1c[nH]c(=O)c(C(F)(F)F)c1)OC(=O)N1CCN(c2ncc(C(F)(F)F)cn2)CC1 (centres unmarked) [Example 33, 1-(6-Oxo-5-(trifluoromethyl)-1,6-dihydropyridin-3-yl)propan-2-yl 4-(5-(trifluoromethyl)pyrimidin-2-yl)piperazine-1-carboxylate]
0.78 nM	C[C@@H](Cc1c[nH]c(=O)c(C(F)(F)F)c1)OC(=O)N1[C@@H](C)CN(c2ncc(C3CC3)cn2)C[C@@H]1C [Example 177, (S)-1-(6-Oxo-5-(trifluoromethyl)-1,6-dihydropyridin-3-yl)propan-2-yl (2S,6S)-4-(5-cyclopropylpyrimidin-2-yl)-2,6-dimethylpiperazine-1-carboxylate]
1 nM	C[C@@H]1CN(C(=O)OCCc2c[nH]c(=O)c(C(F)(F)F)c2)[C@@H](C)CN1c1ncc(C2CC2)cn1 [Example 183, 2-(6-Oxo-5-(trifluoromethyl)-1,6-dihydropyridin-3-yl)ethyl (2S,5R)-4-(5-cyclopropylpyrimidin-2-yl)-2,5-dimethylpiperazine-1-carboxylate]
0.98 nM	C[C@@H]1CN(c2ncc(C(F)(F)F)cn2)C[C@H](C)N1C(=O)O[C@@H](C)Cc1c[nH]c(=O)c(C(F)(F)F)c1 [Example 156, (S)-1-(6-Oxo-5-(trifluoromethyl)-1,6-dihydropyridin-3-yl)propan-2-yl (2R,6S)-2,6-dimethyl-4-(5-(trifluoromethyl)pyrimidin-2-yl)piperazine-1-carboxylate]
0.74 nM	C[C@@H]1CN(c2ncc(C3CC3)cn2)[C@@H](C)CN1C(=O)O[C@@H](C)Cc1c[nH]c(=O)c(C(F)(F)F)c1 [Example 173, (S)-1-(6-Oxo-5-(trifluoromethyl)-1,6-dihydropyridin-3-yl)propan-2-yl (2R,5S)-4-(5-cyclopropylpyrimidin-2-yl)-2,5-dimethylpiperazine-1-carboxylate]
5.5 nM	C[C@H]1CN(c2ncc(C3CC3)cn2)C[C@H](C)N1C(=O)OCCc1c[nH]c(=O)c(C(F)(F)F)c1 [Example 182, 2-(6-Oxo-5-(trifluoromethyl)-1,6-dihydropyridin-3-yl)ethyl (2S,6S)-4-(5-cyclopropylpyrimidin-2-yl)-2,6-dimethylpiperazine-1-carboxylate]
0.91 nM	C[C@@H]1CN(c2ncc(C(F)(F)F)cn2)[C@H](C)CN1C(=O)O[C@@H](C)Cc1c[nH]c(=O)c(C(F)(F)F)c1 [Example 161, (S)-1-(6-Oxo-5-(trifluoromethyl)-1,6-dihydropyridin-3-yl)propan-2-yl (2R,5R)-2,5-dimethyl-4-(5-(trifluoromethyl)pyrimidin-2-yl)piperazine-1-carboxylate]
0.65 nM	C[C@@H](Cc1c[nH]c(=O)c(C(F)(F)F)c1)OC(=O)N1CCN(c2ncc(F)cn2)CC1 [Example 65, (S)-1-(6-Oxo-5-(trifluoromethyl)-1,6-dihydropyridin-3-yl)propan-2-yl 4-(5-fluoropyrimidin-2-yl)piperazine-1-carboxylate]
0.87 nM	Cc1cnc(N2C[C@H](C)N(C(=O)O[C@@H](C)Cc3c[nH]c(=O)c(C(F)(F)F)c3)C[C@H]2C)nc1 [Example 170, (S)-1-(6-Oxo-5-(trifluoromethyl)-1,6-dihydropyridin-3-yl)propan-2-yl (2S,5R)-2,5-dimethyl-4-(5-methylpyrimidin-2-yl)piperazine-1-carboxylate]
0.7 nM	Cc1cnc(N2C[C@@H](C)N(C(=O)O[C@@H](C)Cc3c[nH]c(=O)c(C(F)(F)F)c3)C[C@H]2C)nc1 [Example 169, (S)-1-(6-Oxo-5-(trifluoromethyl)-1,6-dihydropyridin-3-yl)propan-2-yl (2R,5R)-2,5-dimethyl-4-(5-methylpyrimidin-2-yl)piperazine-1-carboxylate]
0.77 nM	C[C@@H]1CN(c2ncc(C(F)(F)F)cn2)C[C@@H](C)N1C(=O)OCCc1c[nH]c(=O)c(C(F)(F)F)c1 [Example 148, 2-(6-Oxo-5-(trifluoromethyl)-1,6-dihydropyridin-3-yl)ethyl (2R,6R)-2,6-dimethyl-4-(5-(trifluoromethyl)pyrimidin-2-yl)piperazine-1-carboxylate]
